Data as given in patent US12017992B2, “Compounds for modulating mitochondrial function” (Mayo Foundation for Medical Education and Research, priority 2015, dated 2024).
Values joined by “and” are separate entries in the source; they are usually repeats but may differ in a detail not shown here. Equal entries are not always repeated. “Also recorded” adds a separate entry of the source. Where two headings read alike, the source gives them in different places.

How the values were obtained:
ATP production = experiment: ATP levels in primary embryonic cortical neurons; format: cell-based, mouse; conditions: 10 nM to 5 μM, 24 hours
Protocol: FIGS. 12A and 12B are a pair of graphs plotting ATP levels in primary embryonic cortical neurons that were seeded on 96-well plates at 30,000 cells per well and treated with the indicated compounds at concentrations ranging from 10 nM to 5 μM, as indicated. ATP levels were measured 24 hours later using an ATP determination Kit (Life Technologies; Carlsbad, CA). ATP levels are expressed as a percent of vehicle treated (control) cells. All experiments were performed twice in 6 replicates.
FIG. 17 is a graph plotting ATP levels in primary embryonic cortical neurons after seeding on a 96-well plate at 30,000 cells per well and being treated seven days later with the indicated compounds at concentrations of 100 nM, 2 μM, and 5 μM. ATP levels were measured 24 hours after treatment using the bioluminescent CellTiter-GLO 2 assay (Promega, Madison, WI). All experiments were performed in 6 replicates.
To further characterize these nine new compounds, Complex I activity was measured in isolated mitochondria, and levels of ATP, NAD+, and NADH were measured in primary mouse embryonic cortical neurons (FIGS. 16-18).

MC65 cells = experiment: Efficacy against Aβ toxicity in MC65 Tet on/off cells (MTT assay); format: cell-based; conditions: for cell protective activity in Aβ-producing MC65 cells: 2.5 μM and 5 μM, compared to CP2; for EC50: nonlinear regression
Protocol: FIGS. 4A and 4B are a pair of graphs plotting survival of MC65 cells after treatment with the indicated compounds, in the presence (Tet/off) or absence (Tet/on) of Aβ expression. MC65 cells were cultured for 72 hours in the presence (on) or absence (off) of tetracycline in OPTI-MEM media without serum. […] Cell viability was measured with an MTT assay 72 hours later. Experiments were performed in triplicates. Every 96-well plate had its own on/off control. Four experimental compounds were tested per each plate. Experiments were repeated independently twice.
(§1) FIGS. 5A and 5B are a pair of graphs plotting survival of MC65 cells after treatment with the indicated compounds, in the presence (Tet/off) or absence (Tet/on) of Aβ expression. MC65 cells were cultured for 72 hours in the presence (on) or absence (off) of tetracycline in OPTI-MEM media without serum. Cells (Tet/on and Tet/off) at the time of plating were treated every 24 hours with vehicle (0.05% final DMSO) or experimental compounds (FIG. 5A, C458-C461; FIG. 5B, C462-C465) at 2.5 μM and 5 μM. Cell viability was measured with an MTT assay 72 hours later. Experiments were performed in triplicates. Every 96-well plate had its own on/off control. Four experimental compounds were tested per each plate. Experiments were repeated independently twice.
as §1, with “FIG. 6A is” for “FIGS. 5A and 5B are”, “graph” for “pair of graphs”, “(C470-C473)” for “(FIG. 5A, C458-C461; FIG. 5B, C462-C465)”, “twice. […] Toxicity of C463 under the same experimental conditions is shown for comparison. Cells were treated with 5 μM of each compound.” for “twice.”
FIGS. 9A-9D are a series of graphs plotting the half maximal effective concentration (EC50) for each of four experimental compounds against Aβ toxicity in MC65 Tet on/off cells. FIG. 9A, C455; FIG. 9B, C458; FIG. 9C, C460; FIG. 9D, C472.
FIGS. 11A and 11B are graphs plotting survival of MC65 cells cultured for 72 hours in the presence (on; FIG. 11A) or absence (off, FIG. 11B) of tetracycline in OPTI-MEM media without serum. Cells (Tet/on and Tet/off) at the time of plating were treated with either vehicle (0.05% final DMSO) or experimental compounds at 2.5 μM every 24 hours. Cell viability was measured with an MTT assay 72 hours later. Experiments were performed in triplicate, and every 96-well plate had its own on/off control. Four experimental compounds were tested per plate. Experiments were repeated independently twice.
FIGS. 15A and 15B are graphs plotting percent survival of MC65 cells cultured in the presence of tetracycline (Tet-On) (FIG. 15A) or without tetracycline (Tet-off) (FIG. 15B) in OPTI-MEM media without serum. […] Cell viability was measured with an MTT assay 72 hours after plating. Experiments were performed in triplicate, and were repeated independently twice.
The efficacy of all 24 compounds against Aβ toxicity was evaluated in MC65 cells. […] The viability of MC65 cells expressing Aβ (Tet/off, 40% viability) or not expressing Aβ (Tet/on, 100% viability) was measured after treatment with individual compounds. Results for all 24 compounds against Aβ toxicity are presented in FIGS. 4A, 4B, 5A, 5B, 6A, and 6B.
To further characterize the efficacy of these four compounds, the half maximal effective concentration (EC50) against Aβ toxicity in MC65 cells was measured using an MTT assay. […]

[1] = PK of C458 in mice, plasma and brain by LC-MS/MS; format: in vivo, mouse; conditions: for Brain Concentration / Plasma Concentration / concentration at 0.5 h / concentration at 1 h / concentration at 2 h: single mouse; for concentration at 0.5 h / concentration at 1 h / concentration at 2 h / half-life / Kp: mouse; for concentration at 0.5 h / concentration at 1 h / concentration at 2 h: 2 mg/kg
Protocol: FIG. 10 is a graph plotting the elimination rate for C458 in brain and plasma of mice treated with 2.5 mg/kg of the compound via intrafemoral vein injection. Animals were sacrificed at 30 minutes, 1 hour, and 2 hours post injection.
The feasibility of developing the C458 series was evaluated by determining the in vivo PK profile for C458. Re-synthesized C458 was administered intravenously to wild type mice at 2 mg/kg. Frozen serum and brain tissue samples were analyzed using a bioanalytical LC-MS/MS method.
A rough estimation of elimination rate and half-life of C458 was determined in vivo by delivering a dose of 2.5 mg/kg to each mouse via intrafemoral vein injection. Each group of animals (n=2) was sacrificed at 30 minutes, 1 hour, and 2 hours post injection. Blood and brain tissue was collected, flash frozen, and the concentration of C458 was estimated using a LC-MS/MS assay with a linear calibration curve from 1 ng/ml to 1 ug/ml in both plasma and brain.
For rough estimation of elimination rate and half-life, a one-compartment model and the first rate elimination was assumed. Plotting (Ln) of concentration vs. time provided the elimination rate and half-life of C458 in plasma and the brain (FIG. 10).

[2] = In vivo toxicity and histology of C458 in WT mice; design: species or system mouse; conditions: 50 mg/kg for one month ad libitum in drinking water
Protocol: To evaluate the toxicity of C458 in vivo, 2-month old breeding WT mice were treated with 50 mg/kg of C458 via drinking water. Untreated littermates were used as controls. After one month of treatment, adult and newborn animals were sacrificed and tissue was collected for histological examination.

NAD+ and NADH levels = NAD+ and NADH levels in primary embryonic cortical neurons (NAD+/NADH-GLO assay); format: cell-based, mouse; conditions: among C687-C695; 100 nM, 2 μM and 5 μM
Protocol: FIGS. 14A and 14B are graphs plotting NAD^+ and NADH levels (FIG. 14A) or the NAD^+/NADH ratio (FIG. 14B) in primary embryonic cortical neurons after treatment with the indicated compounds. Neurons were seeded on 96-well plates at 30,000 cells per well. Seven days later, cells were treated with each compound at 2 μM. NAD^+ and NADH levels were measured 24 hours later using the bioluminescent NAD^+/NADH-GLO assay (Promega; Madison, WI). NAD^+ and NADH levels are expressed as a percent of vehicle treated (control) cells (FIG. 14A). All experiments were performed in 6 replicates.
FIGS. 18A-18C are graphs plotting the level of NAD+ (FIG. 18A), the level of NADH (FIG. 18B), and the ratio of NAD+/NADH (FIG. 18C) in primary embryonic cortical neurons that were seeded on a 96-well plate at 30,000 cells per well and treated seven days later with the indicated compounds at concentrations 100 nM, 2 μM and 5 μM. NAD+, NADH, and NAD+/NADH ratio were measured using a bioluminescent NAD+/NADH-GLO assay (Promega). All experiments were performed in 6 replicates.

[3] = system: cancer cell lines (HeLa, Panc1, p53−/− ms TCL, Patu, Su); experiment: Survival of cancer cell lines (MTT assay); format: cell-based, human; conditions: 5 μM or 50 μM, particularly at the higher dose
Source text: (§2) FIGS. 20A-20G are a series of graphs plotting the effect of the indicated compounds on survival of various cancer cells vs. control. FIG. 20A, HeLa cervical cancer cells; FIG. 20B, Panc1 pancreatic cancer cells; FIG. 20C, P-WT: mouse embryonic fibroblasts (MEFs; control); FIG. 20D, P++: MEFs; FIG. 20E, p53−/− ms T-cell lymphoma (TCL) cells; FIG. 20F, Patu pancreatic cancer cells; FIG. 20G, Su pancreatic cancer cells.
(§3) The following […] cell lines were used: HeLa (cervical cancer, FIG. 20A); Panc1 (pancreatic cancer, FIG. 20B); P-WT MEFs (control, FIG. 20C), P++ MEFs (accelerated aging phenotype, FIG. 20D) p53−/− ms TCL (FIG. 20E); Patu (pancreatic cancer, FIG. 20F), and Su (pancreatic cancer, FIG. 20G).

[4] = system: P++ MEFs (accelerated aging phenotype); experiment: Growth of P++ mouse embryonic fibroblasts (MTT assay); format: cell-based; conditions: 5 μM or 50 μM
Source text: as §2, §3

Structure (SMILES): Cc1cccc(O[C@@H]2CCC[C@H](C(C)CNCc3ccncc3)C2)c1 (relative stereo) [Compound C458, cis-(N-(pyridin-4-ylmethyl)-2-(3-(m-tolyloxy)cyclohexyl)propan-1-amine)]
- effect on ATP production (ATP production): modestly reduced ATP production
- cell protective activity in Aβ-producing MC65 cells (MC65 cells; 72 hours): promising cell protective activity
- fold higher efficacy (lower EC50) of C458 than CP2 (MC65 cells; EC50 against Aβ toxicity): 20- to 30 fold and 30 fold
- fold higher efficacy of C458 than C455 and C460 (MC65 cells; EC50 against Aβ toxicity): 100 fold
- EC50 (MC65 cells; MC65, MTT assay): ~4 nM
- EC50 (MC65 cells; MTT assay): 3.59 nM
- Brain Concentration ([1]; 0.5 hr): 390 ng/g
- Plasma Concentration ([1]; 0.5 hr): 41.4 ng/mL
- Brain Concentration ([1]; 1 hr): 149 ng/g
- Plasma Concentration ([1]; 1 hr): 15.2 ng/mL
- Brain Concentration ([1]; 2 hr): 76.4 ng/g
- Plasma Concentration ([1]; 2 hr): 10.3 ng/mL
- bioavailability ([1]; from elimination rate and half-life in plasma and brain): good bioavailability
- CNS penetration ([1]; mice, intravenous): significant CNS penetration; also recorded: penetrates the blood brain barrier and accumulates in the brain
- concentration at 0.5 h ([1]; brain, intravenous, 0.5 hr, read-out: Brain Concentration): 316 ng/g
- concentration at 1 h ([1]; brain, intravenous, 1 hr, read-out: Brain Concentration): 118 ng/g
- concentration at 2 h ([1]; brain, intravenous, 2 hr, read-out: Brain Concentration): 68.2 ng/g
- half-life ([1]; brain, intravenous, 2.5 mg/kg intrafemoral vein injection, one-compartment model, first rate elimination, read-out: estimated half-life in brain): 42 min
- Kp ([1]; brain, intravenous, 2.5 mg/kg intrafemoral vein injection, read-out: concentration in the brain, times higher than in plasma): 7 to 8
- Kp ([1]; brain, iv, wild type mice, intravenously at 2 mg/kg, read-out: concentration in brain tissue, times higher (w/v) than in plasma): 7 to 10
- concentration at 0.5 h ([1]; plasma, intravenous, 0.5 hr, read-out: Plasma Concentration): 43.7 ng/mL
- concentration at 1 h ([1]; plasma, intravenous, 1 hr, read-out: Plasma Concentration): 13 ng/mL
- concentration at 2 h ([1]; plasma, intravenous, 2 hr, read-out: Plasma Concentration): 9.83 ng/mL
- half-life ([1]; plasma, intravenous, 2.5 mg/kg intrafemoral vein injection, one-compartment model, first rate elimination, read-out: estimated half-life in plasma): 48 min
- half-life ([1]; serum, iv, wild type mice, intravenously at 2 mg/kg, read-out: apparent t1/2 in the blood): 48 min
- histology of adult WT mice [2]: did not cause histological abnormalities
- pathology of newborn mice conceived by treated breeding WT mice [2]: no pathological abnormalities were detected

Structure (SMILES): Cc1cccc(O[C@@H]2CCC[C@H](C(C)CN(Cc3ccncc3)C(C)C)C2)c1 (some centres unmarked) [Compound C694]
- efficacy in increasing NADH and decreasing NAD+/NADH ratio (NAD+ and NADH levels): highest efficacy

Structure (SMILES): Cc1cc2c(c(=O)o1)C=C1CCN(C(=O)Cc3cccc(O)c3)C[C@@H]1O2 [Compound C460]
- effect on ATP production (ATP production): little or no effect
- cell protective activity in Aβ-producing MC65 cells (MC65 cells; 72 hours): promising cell protective activity
- efficacy against Aβ toxicity (representative images, FIG. 6B) (MC65 cells; 5 μM, 72 hours, Tet/on and Tet/off): efficacy
- growth of cancer cell lines [3]: suppressed growth of the cancer cell lines tested
- growth of P++ MEFs [4]: suppress the growth

Structure (SMILES): Cc1cccc(O[C@@H]2CCC[C@H](C(C)CN(C)Cc3ccncc3)C2)c1 (some centres unmarked) [Compound C693]
- efficacy in increasing NADH and decreasing NAD+/NADH ratio (NAD+ and NADH levels): highest efficacy

Structure (SMILES): Cc1cc2c(c(=O)o1)C=C1CCN(C(C)CCc3ccc(O)cc3)C[C@@H]1O2 (some centres unmarked) [Compound C455]
- effect on ATP production (ATP production): modestly reduced ATP production
- cell protective activity in Aβ-producing MC65 cells (MC65 cells; 72 hours): promising cell protective activity
- growth of cancer cell lines [3]: suppressed growth of the cancer cell lines tested
- growth of P++ MEFs [4]: suppress the growth
